For one test, the system named is SK28 cells. In words: MTS cell viability assay. The settings on record: for cell viability of SK28 cells: concentration-dependent, quadruplicate. Type of test: cell-based. On the procedure: (§1) Tests were conducted in quadruplicate.
(Tetrazolium dyes change colour on reduction, which living cells bring about.)

Test [1] has as its target T1, TDG (Homo sapiens, UniProt Q13569). Kind of test: standard (conventional) radioactive-based glycosylase assay. In kind it is biochemical. The conditions noted are these: tested at 100 nM, 10 μM and 1 mM. The source says:
(§2) (A) Schematic of the molecular beacon assay for G:T repair.
(§3) This assay was optimized for a 96-well and 384-well format. Upon screening the ICCB known bioactive library (approximately 500 compounds) and the Johns Hopkins clinical compound library (approximately 1500 drugs), eighteen and fourteen candidates, respectively (Tables 1 and 2) were identified. Some of these compounds confirmed TDG inhibition in a standard, radioactive-based glycosylase assay (FIG. 19).

The test system of another test is SK28 MEL melanoma cells. Kind of test: clonogenic assay. In kind it is cell-based. The procedure:
as §1

Another test has as its system cancer cells. Kind of test: 5caC levels on chemotherapeutic treatment combined with TDG downregulation/inhibition. Type of test: cell-based. The settings on record: for 5-carboxylcytosine levels, TDG inhibitor combined with temozolomide: combined with temozolomide treatment. The source says: Vincristin is an inhibitor of mitosis that arrests cells in metaphase; it is used as a chemotherapeutic agent for leukemia/lymphoma and melanoma.

For test [2], the target named is T1, TDG. Kind of test: molecular beacon qPCR-based assay of TDG glycosylase activity (G:T / G:U repair), library screen. In kind it is biochemical. The settings on record: 0, 5, 50 and 500 μg/ml. On the procedure: as §2
In the folded hairpin substrate, the fluorescence of 6-FAM, used as fluorescent label at the 5′ end, is quenched by a dabsyl “black hole” moiety at the 3′ end. Upon removal of the mismatched T or U by TDG, and incision of the resulting apurinic/apyrimidinic (AP site) by APE, a short oligonucleotide containing 6-FAM was released. The resulting fluorescence was monitored by real-time qPCR over a 2-hour incubation period at 37° C., providing a sensitive and quantitative measurement of repair activity.
as §3
(In general: Quantitative PCR measures a nucleic acid by following its amplification.)

The target in test [3] is T1, TDG. In words: TDG glycosylase activity in vitro (FIG. 24-25). Type of test: biochemical.
Another test has as its system SK28 melanoma cells. Kind of test: 5-carboxylcytosine (5caC) immunofluorescence staining of cells. The settings on record: SK28 melanoma cells treated with compound. In kind it is cell-based.
Test [4] deals with LNCaP prostate cancer cells. Kind of test: MTS assay, prostate cancer cells. Type of test: cell-based. On the procedure:
(§4) The TDG inhibitors, juglone and closantel, were tested for their ability to kill PC3 and LNCaP prostate cancer cells.

Test [5] has as its system PC3 prostate cancer cells. In words: MTS assay, prostate cancer cells. In kind it is cell-based. The procedure:
as §4

Test [6] concerns LNCaP prostate cancer cells. Kind of test: clonogenic assay, prostate cancer cells. Type of test: cell-based. On the procedure:
as §4

In test [7] the test system is PC3 prostate cancer cells. In words: clonogenic assay, prostate cancer cells. Type of test: cell-based. On the procedure:
as §4

The mark [8] stands for this setting: combined with TDG downregulation (C8).

T1 sequence (Q13569 whole entry): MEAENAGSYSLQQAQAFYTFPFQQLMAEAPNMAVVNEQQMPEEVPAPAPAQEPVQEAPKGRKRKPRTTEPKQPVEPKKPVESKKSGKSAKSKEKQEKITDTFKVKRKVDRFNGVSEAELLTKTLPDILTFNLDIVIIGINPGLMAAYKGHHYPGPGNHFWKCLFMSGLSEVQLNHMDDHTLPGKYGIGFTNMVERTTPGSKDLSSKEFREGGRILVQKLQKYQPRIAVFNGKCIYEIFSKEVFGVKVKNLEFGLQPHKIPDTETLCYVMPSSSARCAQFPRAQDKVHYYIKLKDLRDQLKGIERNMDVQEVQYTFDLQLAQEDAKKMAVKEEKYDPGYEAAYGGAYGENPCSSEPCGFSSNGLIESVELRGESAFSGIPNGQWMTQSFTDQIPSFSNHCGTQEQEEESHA

`N.N.[Cl][Pt][Cl]` [cisplatin]: in the test with SK28 cells (setting [8]), the “SK28 cell viability, cisplatin combined with TDG downregulation” value is on record as “reduction of SK28 cell viability”.

Take `C=CC1=C(C(=O)O)N2C(=O)[C@@H](NC(=O)/C(=N\OCC(=O)O)c3csc(N)n3)[C@H]2SC1` [Cefixime, (6R,7R)-7-{[2-(2-amino-1,3-thiazol-4-yl)-2-(carboxymethoxyimino)acetyl]amino}-3-ethenyl-8-oxo-5-thia-1-azabicyclo[4.2.0]oct-2-ene-2-carboxylic acid]: at TDG [1], the “inhibition of TDG activity, conventional glycosylase assay” value is reported as “inhibition of TDG activity” and the “relative potency in conventional glycosylase assay” value is recorded as “more potent than compound 2, closantel”. Besides, the “cell viability of SK28 cells” value in the test with SK28 cells is “reduce cell viability”. Also, in the test on SK28 MEL melanoma cells, the “clonogenic capacity of SK28 MEL melanoma cells” value (shortened to “clonogenic capacity”) is “reduction of clonogenic capacity”.

`CC[C@]1(O)C[C@H]2CN(CCc3c([nH]c4ccccc34)[C@@](C(=O)OC)(c3cc4c(cc3OC)N(C=O)[C@H]3[C@@](O)(C(=O)OC)[C@H](OC(C)=O)[C@]5(CC)C=CCN6CC[C@]43[C@@H]65)C2)C1` [vincristine]: in the test with cancer cells (setting [8]), the “5caC levels, vincristine combined with TDG downregulation” value is listed as “further increased”. In the test with cancer cells (in the absence of TDG downregulation (pLKO)), the “5caC levels, vincristine alone” value was “increase of 5caC levels”.

In the case of `O=C1C=CC(=O)c2c(O)cccc21` [Juglone, 5-hydroxynaphthoquinone], on TDG [2], the “inhibition of TDG activity, molecular beacon assay for G:T repair” value is given as “Dose dependent inhibition”. The “inhibition of TDG glycosylase activity in vitro” value on TDG [3] is reported as “inhibition of TDG glycosylase activity in vitro”. For the same compound, in the test on SK28 melanoma cells, the “5caC staining in the nuclei of cells in culture” value was “increase 5caC staining”. Further, in the test on cancer cells, the “5-carboxylcytosine levels, TDG inhibitor combined with temozolomide” value is “highly elevated”. The “cell viability of SK28 cells” value in the test on SK28 cells is on record as “reduce cell viability”. Further, in the test with SK28 MEL melanoma cells, the “clonogenic capacity” value is “reduction of clonogenic capacity”. For the same compound, the “proliferation of LNCaP cells, MTS assay” value in test [4] is listed as “stopped proliferation”. In test [5], the “proliferation of PC3 cells, MTS assay” value is “stopped proliferation”. The “proliferation of LNCaP cells, clonogenic assay” value in [6] is “stopped proliferation”. Further, in test [7], the “proliferation of PC3 cells, clonogenic assay” value is on record as “stopped proliferation”.

Regarding `Cc1cc(C(C#N)c2ccc(Cl)cc2)c(Cl)cc1NC(=O)c1cc(I)cc(I)c1O` (stereo not drawn) [Closantel, 5′-Chloro-4′-(4-chloro-α-cyanobenzyl)-3,5-diiodo-2′-methylsalicylanilide, N-[5-Chloro-4-(4-chloro-α-cyanobenzyl)-2-methylphenyl]-2-hydroxy-3,5-diiodobenzamide], at TDG [1], the “inhibition of TDG activity, conventional glycosylase assay” value is reported as “inhibition of TDG activity”. Moreover, the “inhibition of TDG glycosylase activity in vitro” value against TDG [3] was “inhibition of TDG glycosylase activity in vitro”. Further, the “5caC staining in the nuclei of cells in culture” value in the test with SK28 melanoma cells is recorded as “increase 5caC staining”. Further, the “5-carboxylcytosine levels, TDG inhibitor combined with temozolomide” value in the test with cancer cells is given as “highly elevated”. Moreover, the “cell viability of SK28 cells” value with SK28 cells was “reduce cell viability”. Also, the “clonogenic capacity” value in the test on SK28 MEL melanoma cells is on record as “reduction of clonogenic capacity”. Besides, the “proliferation of LNCaP cells, MTS assay” value in [4] is reported as “stopped proliferation”. Moreover, the “proliferation of PC3 cells, MTS assay” value in test [5] is listed as “stopped proliferation”. Moreover, the “proliferation of LNCaP cells, clonogenic assay” value in test [6] is “stopped proliferation”. Besides, the “proliferation of PC3 cells, clonogenic assay” value in test [7] is “stopped proliferation”.
